Key:
Test in all cases: cells
[1] = tested on: ES3; type: functional, cell-based, Homo sapiens; conditions: Homo sapiens, ES3;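 also: growth inhibition of ES3 cells, read out with a cell viability assay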
[2] = tested on: GMS-10; type: functional, cell-based, Homo sapiens; conditions: Homo sapiens, GMS-10;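 also: growth inhibition of GMS-10 cells, read out as cell viability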
Description: SANGER: Inhibition of human GMS-10 cell growth in a cell viability assay.

[3] = tested on: HEL; type: functional, cell-based, Homo sapiens; conditions: Homo sapiens, HEL;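 also: growth inhibition of HEL cells, read out with a cell viability assay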
Description: SANGER: Inhibition of human HEL cell growth in a cell viability assay.

[4] = tested on: KYSE-410; type: functional, cell-based, Homo sapiens; conditions: Homo sapiens, KYSE-410;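 also: growth inhibition of KYSE-410 cells, measured through a cell viability readout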
Description: SANGER: Inhibition of human KYSE-410 cell growth in a cell viability assay.

[5] = tested on: HuO-3N1; type: functional, cell-based, Homo sapiens; conditions: Homo sapiens, HuO-3N1;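 also: cell viability readout used to measure how strongly compounds suppress proliferation of human HuO-3N1 cells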
Description: SANGER: Inhibition of human HuO-3N1 cell growth in a cell viability assay.

[6] = tested on: NCI-H1651; type: functional, cell-based, Homo sapiens; conditions: Homo sapiens, NCI-H1651;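 also: Read-out is a cell viability assay, with IC50 expressing inhibition of NCI-H1651 cell growth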
Description: SANGER: Inhibition of human NCI-H1651 cell growth in a cell viability assay.

[7] = tested on: M059J; type: functional, cell-based, Homo sapiens; conditions: Homo sapiens, M059J;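 also: growth inhibition of M059J cells, read out with a cell viability assay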
Description: SANGER: Inhibition of human M059J cell growth in a cell viability assay.

[8] = tested on: BCPAP; type: functional, cell-based, Homo sapiens; conditions: Homo sapiens, BCPAP;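 also: growth inhibition of BCPAP cells, read out in a cell viability assay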
Description: SANGER: Inhibition of human BCPAP cell growth in a cell viability assay.

[9] = tested on: NMC-G1; type: functional, cell-based, Homo sapiens; conditions: Homo sapiens, NMC-G1;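 also: growth inhibition of the NMC-G1 cell line, measured with a cell viability read-out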
Description: SANGER: Inhibition of human NMC-G1 cell growth in a cell viability assay.

[10] = tested on: MDA-MB-175-VII; type: functional, cell-based, Homo sapiens; conditions: Homo sapiens, MDA-MB-175-VII
[11] = tested on: GP5d; type: functional, cell-based, Homo sapiens; conditions: Homo sapiens, GP5d;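 also: growth inhibition of human GP5d cells, read out with a cell viability assay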
Description: SANGER: Inhibition of human GP5d cell growth in a cell viability assay.

[12] = tested on: MZ7-mel; type: functional, cell-based, Homo sapiens; conditions: Homo sapiens, MZ7-mel;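 also: growth inhibition of human MZ7-mel cells, measured by a cell viability assay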
[13] = tested on: NCI-H1437; type: functional, cell-based, Homo sapiens; conditions: Homo sapiens, NCI-H1437;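 also: growth inhibition of human NCI-H1437 cells, read out by a cell viability assay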
Description: SANGER: Inhibition of human NCI-H1437 cell growth in a cell viability assay.

[14] = tested on: NCI-H1792; type: functional, cell-based, Homo sapiens; conditions: Homo sapiens, NCI-H1792;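 also: growth inhibition of human NCI-H1792 cells, read out as cell viability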
Description: SANGER: Inhibition of human NCI-H1792 cell growth in a cell viability assay.

[15] = tested on: SK-MEL3; type: functional, cell-based, Homo sapiens, SK-MEL-3; conditions: Homo sapiens, SK-MEL3;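 also: growth inhibition of human SK-MEL-3 cells, read out with a cell viability assay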
Description: SANGER: Inhibition of human SK-MEL-3 cell growth in a cell viability assay.

[16] = tested on: NB5; type: functional, cell-based, Homo sapiens; conditions: Homo sapiens, NB5;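 also: growth inhibition of NB5 cells, read out as cell viability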
Description: SANGER: Inhibition of human NB5 cell growth in a cell viability assay.

[17] = tested on: MCF7; type: functional, cell-based, Homo sapiens; conditions: Homo sapiens, MCF7;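 also: growth inhibition of human MCF7 cells, read out with a cell viability assay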
Description: SANGER: Inhibition of human MCF7 cell growth in a cell viability assay.

[18] = tested on: HDLM-2; type: functional, cell-based; conditions: Homo sapiens;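 also: cell viability assay measuring suppression of HDLM-2 proliferation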
Description: SANGER: Inhibition of human HDLM-2 cell growth in a cell viability assay.

[19] = tested on: LCLC-97TM1; type: functional, cell-based, Homo sapiens; conditions: Homo sapiens, LCLC-97TM1;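 also: cell viability assay measuring growth inhibition of human LCLC-97TM1 cells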
Description: SANGER: Inhibition of human LCLC-97TM1 cell growth in a cell viability assay.

[20] = tested on: MHH-PREB-1; type: functional, cell-based; conditions: Homo sapiens;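 also: cell viability assay measuring inhibition of proliferation of human MHH-PREB-1 cells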
Description: SANGER: Inhibition of human MHH-PREB-1 cell growth in a cell viability assay.

[21] = tested on: GI-ME-N; type: functional, cell-based, Homo sapiens; conditions: Homo sapiens, GI-ME-N;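 also: growth inhibition of human GI-ME-N cells, read out with a cell viability assay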
Description: SANGER: Inhibition of human GI-ME-N cell growth in a cell viability assay.

[22] = tested on: 697; type: functional, cell-based; conditions: Homo sapiens
Description: SANGER: Inhibition of human 697 cell growth in a cell viability assay.

[23] = tested on: KYSE-450; type: functional, cell-based; conditions: Homo sapiens;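 also: cell growth inhibition measured by a viability assay in human KYSE-450 cells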
Description: SANGER: Inhibition of human KYSE-450 cell growth in a cell viability assay.

[24] = tested on: ONS-76; type: functional, cell-based, Homo sapiens; conditions: Homo sapiens, ONS-76;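 also: growth inhibition of human ONS-76 cells, read out with a cell viability assay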
[25] = tested on: EW-18; type: functional, cell-based; conditions: Homo sapiens;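 also: growth inhibition of EW-18 cells, read out by a cell viability assay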
Description: SANGER: Inhibition of human EW-18 cell growth in a cell viability assay.

[26] = tested on: HCC1806; type: functional, cell-based, Homo sapiens; conditions: Homo sapiens, HCC1806;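 also: growth inhibition of the cancer cell line, determined with a cell viability assay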
Description: SANGER: Inhibition of human HCC1806 cell growth in a cell viability assay.

[27] = tested on: SW756; type: functional, cell-based, Homo sapiens; conditions: Homo sapiens, SW756;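 also: growth inhibition of human SW756 cells, read out with a cell viability assay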
Description: SANGER: Inhibition of human SW756 cell growth in a cell viability assay.

[28] = tested on: SK-N-DZ; type: functional, cell-based, Homo sapiens; conditions: Homo sapiens, SK-N-DZ;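 also: growth inhibition of the cancer cell line, read out through a viability assay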
Description: SANGER: Inhibition of human SK-N-DZ cell growth in a cell viability assay.

[29] = tested on: VMRC-RCZ; type: functional, cell-based; conditions: Homo sapiens;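 also: growth inhibition measured with a cell viability assay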
[30] = tested on: BHY; type: functional, cell-based, Homo sapiens; conditions: Homo sapiens, BHY;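 also: cell growth inhibition read out by a viability assay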
Description: SANGER: Inhibition of human BHY cell growth in a cell viability assay.

[31] = tested on: DSH1; type: functional, cell-based, Homo sapiens; conditions: Homo sapiens, DSH1;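 also: growth inhibition of human DSH1 cells, measured with a cell viability readout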
Description: SANGER: Inhibition of human DSH1 cell growth in a cell viability assay.

[32] = tested on: MFM-223; type: functional, cell-based, Homo sapiens; conditions: Homo sapiens, MFM-223
Description: SANGER: Inhibition of human MFM-223 cell growth in a cell viability assay.

[33] = tested on: GOTO; type: functional, cell-based, Homo sapiens; conditions: Homo sapiens, GOTO;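 also: growth inhibition of GOTO cells, read out by a cell viability assay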
Description: SANGER: Inhibition of human GOTO cell growth in a cell viability assay.

[34] = tested on: COLO-800; type: functional, cell-based, Homo sapiens; conditions: Homo sapiens, COLO-800;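 also: growth inhibition of COLO-800 cells, read out with a cell viability assay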
Description: SANGER: Inhibition of human COLO-800 cell growth in a cell viability assay.

[35] = tested on: SK-MEL-2; type: functional, cell-based, Homo sapiens; conditions: Homo sapiens, SK-MEL-2;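 also: growth inhibition of human SK-MEL-2 cells measured with a cell viability assay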
Description: SANGER: Inhibition of human SK-MEL-2 cell growth in a cell viability assay.

[36] = tested on: Ca-Ski; type: functional, cell-based; conditions: Homo sapiens;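 also: cell viability assay measuring inhibition of Ca-Ski cell growth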
Description: SANGER: Inhibition of human Ca-Ski cell growth in a cell viability assay.

[37] = tested on: MOLT-4; type: functional, cell-based; conditions: Homo sapiens;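 also: growth inhibition of MOLT-4 cells, determined with a cell viability readout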
Description: SANGER: Inhibition of human MOLT-4 cell growth in a cell viability assay.

[38] = tested on: CAL-33; type: functional, cell-based, Homo sapiens; conditions: Homo sapiens, CAL-33;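 also: growth inhibition of CAL-33 cells, read out with a cell viability assay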
Description: SANGER: Inhibition of human CAL-33 cell growth in a cell viability assay.

[39] = tested on: CAL-39; type: functional, cell-based, Homo sapiens; conditions: Homo sapiens, CAL-39;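 also: cell viability assay measuring growth inhibition of CAL-39 cells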
Description: SANGER: Inhibition of human CAL-39 cell growth in a cell viability assay.

[40] = tested on: NCI-H1648; type: functional, cell-based, Homo sapiens; conditions: Homo sapiens, NCI-H1648;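 also: cell viability assay measuring inhibition of NCI-H1648 cell growth, from the Sanger screening data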
Description: SANGER: Inhibition of human NCI-H1648 cell growth in a cell viability assay.

[41] = tested on: NCI-H1155; type: functional, cell-based; conditions: Homo sapiens;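 also: cell growth inhibition measured by a viability assay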
Description: SANGER: Inhibition of human NCI-H1155 cell growth in a cell viability assay.

[42] = tested on: ASPC1; type: functional, cell-based, Homo sapiens; conditions: Homo sapiens, ASPC1;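 also: growth inhibition of AsPC-1 cells, read out with a cell viability assay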
Description: SANGER: Inhibition of human AsPC-1 cell growth in a cell viability assay.

[43] = tested on: TE-1; type: functional, cell-based, Homo sapiens; conditions: Homo sapiens, TE-1;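 also: growth inhibition of the human TE-1 cell line, read out with a cell viability assay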
Description: SANGER: Inhibition of human TE-1 cell growth in a cell viability assay.

[44] = tested on: TE-12; type: functional, cell-based; conditions: Homo sapiens;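 also: growth inhibition of TE-12 cells, read out by a cell viability assay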
Description: SANGER: Inhibition of human TE-12 cell growth in a cell viability assay.

[45] = tested on: H4; type: functional, cell-based; conditions: Homo sapiens
Description: SANGER: Inhibition of human H4 cell growth in a cell viability assay.

[46] = tested on: CCRF-CEM; type: functional, cell-based; conditions: Homo sapiens;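 also: inhibition of CCRF-CEM cell growth, measured by a cell viability assay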
Description: SANGER: Inhibition of human CCRF-CEM cell growth in a cell viability assay.

[47] = tested on: A498; type: functional, cell-based, Homo sapiens; conditions: Homo sapiens, A498;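 also: growth inhibition of human A498 cells, read out with a cell viability assay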
Description: SANGER: Inhibition of human A498 cell growth in a cell viability assay.

[48] = tested on: EC-GI-10; type: functional, cell-based, Homo sapiens; conditions: Homo sapiens, EC-GI-10
Description: SANGER: Inhibition of human EC-GI-10 cell growth in a cell viability assay.

[49] = tested on: NCI-H82; type: functional, cell-based; conditions: Homo sapiens;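 also: growth inhibition of NCI-H82 cells, measured with a cell viability readout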
Description: SANGER: Inhibition of human NCI-H82 cell growth in a cell viability assay.

[50] = tested on: CAL-54; type: functional, cell-based, Homo sapiens; conditions: Homo sapiens, CAL-54;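 also: growth inhibition of CAL-54 cells, read out by a viability measurement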
Description: SANGER: Inhibition of human CAL-54 cell growth in a cell viability assay.

[51] = tested on: A673; type: functional, cell-based, Homo sapiens; conditions: Homo sapiens, A673;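 also: growth inhibition of human A673 cells, read out through a cell viability assay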
Description: SANGER: Inhibition of human A673 cell growth in a cell viability assay.

[52] = tested on: HAL-01; type: functional, cell-based; conditions: Homo sapiens;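 also: growth inhibition of human HAL-01 cells, read out with a cell viability assay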
Description: SANGER: Inhibition of human HAL-01 cell growth in a cell viability assay.

`COC(=O)CNC(=O)C(=O)OC` gave an IC50 [1] of 701 µM, an IC50 [2] of 2190 µM and an IC50 [3] of 197 µM. It also gave an IC50 [4] of 20.8 µM, an IC50 [5] of 701 µM and an IC50 [6] of 1360 µM. The IC50 [7] was 541 µM, the IC50 [8] was 209 µM and the IC50 [9] was 466 µM. The IC50 [10] was greater than 4000 µM, the IC50 [11] was 636 µM and the IC50 [12] was 171 µM. For the same molecule, the IC50 [13] was 90.8 µM, the IC50 [14] was 706 µM and the IC50 [15] was 279 µM. It also gave an IC50 [16] greater than 4000 µM, an IC50 [17] greater than 4000 µM and an IC50 [18] of 1890 µM. For the same molecule, the IC50 [19] was 200 µM, the IC50 [20] was 137 µM and the IC50 [21] was 2120 µM. For the same molecule, the IC50 [22] was 229 µM, the IC50 [23] was 2480 µM and the IC50 [24] was 241 µM. It also gave an IC50 [25] of 1510 µM, an IC50 [26] of 1840 µM and an IC50 [27] of 138 µM. It also gave an IC50 [28] of 3090 µM, an IC50 [29] of 1960 µM and an IC50 [30] of 465 µM. For the same molecule, the IC50 [31] was 96.2 µM, the IC50 [32] was greater than 4000 µM and the IC50 [33] was 1150 µM. It also gave an IC50 [34] greater than 4000 µM, an IC50 [35] of 1960 µM and an IC50 [36] of 157 µM. For the same molecule, the IC50 [37] was 718 µM, the IC50 [38] was 242 µM and the IC50 [39] was 19.3 µM. It also gave an IC50 [40] of 1670 µM, an IC50 [41] of 1540 µM and an IC50 [42] of 3920 µM. The IC50 [43] was 1010 µM, the IC50 [44] was 182 µM and the IC50 [45] was 177 µM. The IC50 [46] was 37.8 µM, the IC50 [47] was 663 µM and the IC50 [48] was greater than 4000 µM. The IC50 [49] was greater than 4000 µM, the IC50 [50] was 1250 µM and the IC50 [51] was 526 µM. For the same molecule, the IC50 [52] was 119 µM.

In the case of `CN(C)C/C=C/C(=O)Nc1cc2c(Nc3ccc(F)c(Cl)c3)ncnc2cc1O[C@H]1CCOC1` [AFATINIB], the IC50 [1] is reported as greater than 0.5 µM, the IC50 [2] is reported as greater than 0.5 µM and the IC50 [3] is reported as greater than 0.5 µM. It also gave an IC50 [4] greater than 0.5 µM, an IC50 [5] greater than 0.5 µM and an IC50 [6] greater than 0.5 µM. The IC50 [7] was greater than 0.5 µM, the IC50 [8] was greater than 0.5 µM and the IC50 [9] was greater than 0.5 µM. It also gave an IC50 [10] of 0.0342 µM, an IC50 [11] greater than 0.5 µM and an IC50 [12] greater than 0.5 µM. For the same molecule, the IC50 [13] was greater than 0.5 µM, the IC50 [14] was greater than 0.5 µM and the IC50 [15] was greater than 0.5 µM. For the same molecule, the IC50 [16] was greater than 0.5 µM, the IC50 [17] was greater than 0.5 µM and the IC50 [18] was 0.00572 µM. It also gave an IC50 [19] greater than 0.5 µM, an IC50 [20] greater than 0.5 µM and an IC50 [21] greater than 0.5 µM. The IC50 [22] was greater than 0.5 µM, the IC50 [23] was 0.0598 µM and the IC50 [24] was greater than 0.5 µM. For the same molecule, the IC50 [25] was greater than 0.5 µM, the IC50 [26] was greater than 0.5 µM and the IC50 [27] was greater than 0.5 µM. For the same molecule, the IC50 [28] was greater than 0.5 µM, the IC50 [29] was greater than 0.5 µM and the IC50 [30] was 0.287 µM. The IC50 [31] was 0.0331 µM, the IC50 [32] was greater than 0.5 µM and the IC50 [33] was greater than 0.5 µM. It also gave an IC50 [34] greater than 0.5 µM, an IC50 [35] greater than 0.5 µM and an IC50 [36] greater than 0.5 µM. It also gave an IC50 [37] greater than 0.5 µM, an IC50 [38] of 0.202 µM and an IC50 [39] of 0.118 µM. The IC50 [40] was 0.442 µM, the IC50 [41] was greater than 0.5 µM and the IC50 [42] was greater than 0.5 µM. For the same molecule, the IC50 [43] was greater than 0.5 µM, the IC50 [44] was greater than 0.5 µM and the IC50 [45] was greater than 0.5 µM. The IC50 [46] was greater than 0.5 µM, the IC50 [47] was 0.407 µM and the IC50 [48] was 0.0591 µM. For the same molecule, the IC50 [49] was greater than 0.5 µM, the IC50 [50] was greater than 0.5 µM and the IC50 [51] was greater than 0.5 µM. For the same molecule, the IC50 [52] was greater than 0.5 µM.
